Test [1] deals with HT-29 human colorectal adenocarcinoma tumor line. Briefly: Cell cycle progression by flow cytometry (PI/RNase staining). The format is cell-based. As to conditions: HT-29 cells, 10 and 20 µM, 48 h, compared with untreated control and docetaxel 2 µM positive control. Here is the method: Assay to evaluate the in vitro antiproliferative activity of nanocrystallized xanthatin by flow cytometry.
The antiproliferative activity through cell cycling arrest was evaluated in HT-29 cells. Cells were cultured in 6-well plates (2×10^5 and 1×10^5 cells/ml, respectively) until 90% confluence was reached. Three xanthatin samples were evaluated: commercial, laboratory-isolated, and nanocrystallized xanthatin at concentrations of 10 and 20 µM. Prior to treatment, both commercial and isolated xanthatin were dissolved in DMSO, unlike nanocrystallized xanthatin, which was added directly to the cell culture medium. Medium supplemented with 1% FBS was used as the control. Docetaxel 2 µM was used as a positive control for cell cycle arrest in G2/M. The treatments were added to the medium supplemented with 1% FBS on the day after seeding the cells on the plates. The cells were incubated for 48 h upon the treatments, harvested, fixed in 100% ethanol, and stored at -20°C. Cell cycle distribution was next assessed using flow cytometry. On the day of the assay, samples were incubated with a PI/Rnase mixture at room temperature and in the dark for 20 min prior to analysis.
(In general: Flow cytometry measures light scatter and fluorescence of single cells or particles in a stream.)

Test [2] concerns murine U14 cervical carcinoma cells. In words: In vivo antitumor effect of in situ gelation containing xanthatin nanocrystals, tumor implant near the cervix. The arrangement: species or system female BALB/c mice. As to conditions: hydrogel intravaginal 0.850 mg nanocrystallized xanthatin per mouse daily for 5 days, carboplatin i.v. 0.675 mg per mouse for 3 days. The protocol:
Evaluation of the in vivo antitumor effect of in situ gelation containing xanthatin nanocrystals was performed using murine U14 cervical carcinoma cells inoculated into the cervix of female BALB/c mice with an average weights of 22-24 g. Tumor implantation was performed by inoculating the submucosa near the cervix of each animal with 25 µL of cell suspension in PBS, with a total of 4×10^5 cells/mouse. Four randomly distributed groups of 6 animals per group were formed. The treatment schedule was carried out for 5 days with a daily intravaginal infusion of the thermosensitive hydrogel containing the xanthatin nanocrystals (8.5 µL, 0.850 mg of nanocrystallized xanthatin per mouse) and placebo, and for 3 days with a daily intravaginal infusion of […] Tumor weight and tumor inhibition rates were evaluated. Tumor inhibition rate was calculated using the following formula: TIR = (Aw −Ax)/([…]) × 100 [formula]
Where: • TIR means tumor inhibition rate in %. • AW means the average weight of tumors in the control group. • Ax means the average weight of the tumors of the treated group.

The test system of test [3] is HT-29 colorectal adenocarcinoma. In words: MTT reduction assay, cell viability (HT-29). It counts as cell-based, human. The settings on record: HT-29 cells, 10 and 20 µM, 24 h, isolated xanthatin dissolved in DMSO, nanocrystals added directly to the medium. Here is the method:
(§1) Cell growth inhibition of nanocrystallized xanthatin assessed using the MTT assay.
(§2) The viability of the cultured cells was assessed using the MTT reduction assay. The assay was performed using the method described by Mosmann (1983). HT-29 and HeLa cells were seeded in 96-well plates at 10^4 cells/ml and 5x10^3 cells/ml respectively. The cells were cultured in Dulbecco's modified Eagle's medium (DMEM) supplemented with 10% FBS, 1% glutamine, triple antibiotic (3A), and 25 mM glucose, and maintained at 37°C in a 5% CO2 incubator until 80-90% confluence. After 24h of incubation, to ensure cell adhesion, the medium was removed and different concentrations (10 and 20 µM) of either commercial xanthatin, isolated xanthatin, and xanthatin nanocrystals, or as a negative control medium supplemented with 1% DMSO, were added. Prior to treatment, the commercial and isolated xanthatin samples were dissolved in DMSO, unlike the nanocrystallized xanthatin that was directly added to the cell culture medium. The prepared plates were incubated for 24 h, and 50 µL MTT (5 mg/ml) per well was added to a final concentration of 1 mg/ml. […] Relative cell viability was determined by measuring the absorbance at 540 nm on an ELISA plate reader (Tecan Sunrise MR20-301, TECAN Austria). Absorbance is directly proportional to the level of cell proliferation or viability. […]
(In general: Formazan colour is commonly taken as a measure of viable cells.)

The test system of test [4] is HeLa cervical carcinoma tumor lines. In words: MTT reduction assay, cell viability (HeLa). It counts as cell-based, human. As to conditions: HeLa cells, 10 and 20 µM, 24 h, isolated xanthatin dissolved in DMSO, nanocrystals added directly to the medium. The protocol:
as §1, §2

Molecules are shown by their SMILES.

Consider `C=C1C(=O)O[C@H]2C[C@H](C)C(/C=C/C(C)=O)=CC[C@H]12` [commercial xanthatin, xanthatin], for which the “cell cycle arrest in the G2/M phase” value in test [1] is listed as “no statistically significant differences”.
In the case of `N.N.O=C([O-])C1(C(=O)[O-])CCC1.[Pt+2]` [injectable carboplatin, carboplatin], the tumor inhibition rate in test [2] (calculated from average tumor weights) was 54.4%. Further, in test [2] (with respect to the placebo and control groups), the tumor weight entry is on record as “significant decrease”.
Regarding `C=C1C(=O)O[C@H]2C[C@H](C)C(/C=C/C(C)=O)=CC[C@H]12` [laboratory isolated xanthatin, xanthatin], the “cell cycle arrest in the G2/M phase” value in test [1] (listed as isolated xanthatin) is listed as “induced cell cycle arrest in the G2/M phase”. Further, the viability inhibition entry in test [3] and in test [4] was “significantly higher than that of commercial xanthatin” throughout.

The record behind these values is patent EP4806421A2, “PHARMACEUTICAL COMPOSITIONS OF NANOCRYSTALLIZED XANTHATIN AND USE THEREOF AS AN ANTI-TUMOR AGENT” (Centro de Investigación y Desarrollo de Medicamentos CIDEM, priority 2023, dated 2025).
